Experiments:
[1] = system: γ-secretase-cleaved NOTCH1 (NICD); assay: Western blot of NICD levels after DAPT treatment; assay type: cell-based, human
Description: For MAST2 fusion protein detection, cell pellets were sonicated in NP40 lysis buffer (50 mM Tris-HCl, 1% NP40, pH 7.4, Sigma), complete protease inhibitor mixture (Roche) and phosphatase inhibitor (EMD bioscience) Immunoblot analysis for MAST2 was carried out using MAST2 antibody from Novus Biologicals. Human β-actin antibody (Sigma) was used as a loading control. For NOTCH1 protein detection, cells were lysed in RIPA buffer containing protease inhibitor cocktail (Pierce). Proteins were separated by SDS-PAGE, transferred to nitrocellulose membranes and probed with antibodies recognizing total NOTCH1 (Cell Signaling), γ-secretase-cleaved NOTCH1 (NICD, Cell Signaling), or beta-actin (Santa Cruz). The signal was detected by chemiluminescence using Immun-Star Western C reagents (Bio-Rad).
(§1) Notch fusion alleles provide a target for therapeutic intervention. The three characterized Notch fusions represent two functional classes. […] Each of the three cell lines was treated with the γ-secretase inhibitor DAPT 31, and luciferase activity was measured in cell lysates 24 hours later. […] A panel of six breast cell lines were treated with DAPT at 0, 0.3, 1, and 3 μM, and cell proliferation was measured using a WST-1 assay over a six day time course.

[2] = system: Notch signaling pathway; assay: Notch reporter luciferase assay after DAPT treatment; assay type: cell-based, human; conditions: lysates 24 hours after DAPT
Description: Breast cancer cells were seeded into 24-well dishes in triplicate and allowed to attach overnight. Cells were then infected with a Notch-reporter construct Lenti-RBPJ-firefly luciferase together with a Lenti-CMV-Renilla luciferase control (SABiosciences/QIAGEN). The two lentiviral stocks were mixed at a ratio of 50 Notch reporters to 1 CMV control and a single mixture was used to infect all recipient cell lines at a MOI of 100. Following incubation for 48 hours, cell lysates were prepared and measured for Notch activity using Promega Dual Luciferase reagents and Passive Lysis Buffer. Firefly luciferase levels were normalized using corresponding Renilla luciferase levels for each cell line. To confirm that Notch pathways are activated in the index cell lines through Notch gene rearrangements, the activated NOTCH1 and NOTCH2 alleles were cloned from HCC1599, HCC2218, and HCC1187 into a pcDNA3.1 vector. These expression constructs, pcDNA3.1-1599-NOTCH1, pcDNA3.1-2218-NOTCH1, and pcDNA3.1-1187-NOTCH2 and positive control NOTCH1-NICD, were individually transfected into 293T cells along with the pGL4-RBPJ-4X reporter plasmid and pTKRenilla luciferase control plasmid. Cells were harvested for luciferase activity assays 24 hours after transfection and assayed as above.
as §1, with “classes. The first class, exemplified by the HCC2218 and HCC1599 fusions, produces a protein similar to that produced by the ADAM17/TACE catalyzed S2 cleavage, which occurs during ligand activation of the Notch pathway. The second class, exemplified by the HCC1187 fusion, produces a protein similar to the NICD produced after cleavage at S3 by γ-secretase.” for “classes.”

[3] = system: HCC1599 cells; assay: WST-1 cell proliferation assay with DAPT; assay type: cell-based, human; conditions: DAPT 0.3, 1, and 3 μM, six day time course
Description: (§2) For cell proliferation assays, cells were seeded into 96-well plates in triplicate and allowed to attach overnight before drug treatment. The γ-secretase inhibitor DAPT (EMD Biosciences) was added to the cultures the next day at concentrations of 0, 0.3, 1, and 3 μM. Relative cell numbers were measured by WST-1 assays at indicated time points following the manufacturer's instructions (Roche).
(§3) Notch fusion alleles provide a target for therapeutic intervention. The three characterized Notch fusions represent two functional classes. The first class, exemplified by the HCC2218 and HCC1599 fusions, produces a protein similar to that produced by the ADAM17/TACE catalyzed S2 cleavage, which occurs during ligand activation of the Notch pathway. The second class, exemplified by the HCC1187 fusion, produces a protein similar to the NICD produced after cleavage at S3 by γ-secretase. The first class requires cleavage at S3 site by γ-secretase to release NICD, and thus would be expected to be sensitive to γ-secretase inhibitors (GSIs). The second class would be unaffected by GSIs, as the fusion generates an ORF similar to NICD. To test this, stable Notch reporter cell lines were established from each of the three Notch fusion positive carcinoma lines by infection with a lentivirus carrying the Notch responsive promoter driving firefly luciferase. Each of the three cell lines was treated with the γ-secretase inhibitor DAPT 31, and luciferase activity was measured in cell lysates 24 hours later. […] A panel of six breast cell lines were treated with DAPT at 0, 0.3, 1, and 3 μM, and cell proliferation was measured using a WST-1 assay over a six day time course.

[4] = system: other breast cell lines not expressing Notch fusion alleles; assay: WST-1 cell proliferation assay with DAPT; assay type: cell-based, human; conditions: DAPT 0.3, 1, and 3 μM, six day time course
Description: as §2, §3

[5] = system: HCC1187 cells; assay: WST-1 cell proliferation assay with DAPT; assay type: cell-based, human; conditions: DAPT 0.3, 1, and 3 μM, six day time course
Description: as §2, §3

[6] = system: HCC2218 cells; assay: WST-1 cell proliferation assay with DAPT; assay type: cell-based, human; conditions: DAPT 0.3, 1, and 3 μM, six day time course
Description: as §2, §3

[7] = system: HCC1599 xenograft
Description: Four week-old female SCID C.B17 mice were procured from a breeding colony at University of Michigan. […] Mice were anesthetized using a cocktail of xylazine (80 mg/kg IP) and ketamine (10 mg/kg IP) for chemical restraint. MAST2 shRNA or scrambled shRNA knockdown MDA-MB-468 breast cancer cells (4 million) or NOTCH1 fusion allele positive HCC1599 breast cancer cell line (5 million) were resuspended in 100 ul of 1×PBA with 20% Matrigel (BD Biosciences) and implanted into right and left abdominal-inguinal mammary fat. Ten mice were included in each group. Two weeks after tumor implantation, HCC1599 xenograted mice were treated with γ-secretase inhibitor (DAPT) dissolved in 5% ethanol in corn oil (IP). Mice in control group also received 5% ethanol in corn oil as vehicle control. Tumor growth was recorded weekly by using digital calipers and tumor volumes were calculated using the formula (R/6) (L×W2), where L=length of tumor and W=width.
This was tested further by establishing a xenograft tumor model of HCC1599 in immunodeficient mice.

[8] = system: Notch target genes CCND1, MYC, and HEY1; assay: Expression of Notch target genes after DAPT treatment; assay type: cell-based, human; conditions: 24-hour time course, cell lines with γ-secretase dependent Notch fusions

**Q.** Which “NICD levels (Western blot)” value ([1]; HCC1599 cells after DAPT treatment) does the source give for C[C@H](NC(=O)Cc1cc(F)cc(F)c1)C(=O)N[C@H](C(=O)OC(C)(C)C)c1ccccc1 [DAPT, N—[N-(3,5-difluorophenacetyl)-L-alanyl]-S-phenylglycine t-butyl ester] here?
**A.** nearly complete elimination

**Q.** And the “NICD levels (Western blot)” value ([1]; HCC2218 cells after DAPT treatment)?
**A.** dramatically reduced

**Q.** And the “Notch reporter activity (luciferase)” value ([2]; HCC1187 stable Notch reporter line)?
**A.** only slightly diminished

**Q.** What about the “Notch reporter activity (luciferase)” value ([2]; HCC1599 stable Notch reporter line) of the same molecule?
**A.** dramatic reduction

**Q.** What about the “Notch reporter activity (luciferase)” value ([2]; HCC2218 stable Notch reporter line) of the same molecule?
**A.** dramatic reduction

**Q.** And the cell proliferation [3]?
**A.** dramatic reduction in proliferation

**Q.** And the cell proliferation [4]?
**A.** no reduction in proliferation

**Q.** What about the cell proliferation [5] of the same molecule?
**A.** no reduction in proliferation

**Q.** What about the cell proliferation [6] of the same molecule?
**A.** significant reduction in proliferation

**Q.** And the tumor volume ([7]; HCC1599 xenograft in immunodeficient mice, DAPT IP, versus untreated controls)?
**A.** significantly reduced

**Q.** What about the overall body weight ([7]; mouse, in vivo) of the same molecule?
**A.** No effect

**Q.** What about the “Notch target gene expression” value [8] of the same molecule?
**A.** repressed

From US20130096021A1, “RECURRENT GENE FUSIONS IN BREAST CANCER” (priority 2011, published 2013)
